Test results taken from patent publication US20250091911A1, “NANOFILTRATION SYSTEM AND METHOD INCLUDING PRETREATMENT WITH GREEN SORPTION MEDIA” (University of Central Florida Research Foundation, Inc., priority 2023, published 2025).

Experiments:
[1] = Overall removal by CPS-nanofiltration water treatment system
Text: (§1) Water samples collected from the C-23 canal were first fortified with PFOS and PFOA and then used as influents to the pretreatment column containing one of the two green sorption media. Note the water samples were not fortified with PFBA and PFBS. The green sorption media effluent served as the feedwater for the nanofiltration unit of the proposed water treatment system. The nanofiltration membrane unit without any green sorption media-based pretreatment served as the “control.” The integration of a green sorption media (CPS or ZIPGEM) with crossflow nanofiltration is herein referred to as a water treatment system, denoted as CPS-nanofiltration or ZIPGEM-nanofiltration. The CPS and ZIPGEM column influents and effluents and nanofiltration permeates were analyzed for both long-chain (PFOS and PFOA) and short-chain (PFBS and PFBA) PFAS. FIG. 3 presents the green sorption media-nanofiltration hybrid treatment scheme.
The average removal efficiencies of each media pretreatment were calculated based on PFAS concentrations in the influents and effluents of triplicate columns, as disclosed in TABLE 5. […] The overall efficiency of the hybrid treatment was calculated by comparing the average concentrations of PFAS in the influents of the green sorption media pretreatment columns and the nanofiltration permeates, as disclosed in TABLE 6.
where C0 is the concentration of PFAS in the column influent or nanofiltration feed in ng·L^−1, and where Ce is the concentration of PFAS in the column effluent or nanofiltration permeate in ng·L^−1. TABLE 7 summarizes the key findings of the green sorption media-based pretreatment and green sorption media-nanofiltration treatment, and these are explained in the subsequent subsection through an in-depth discussion and statistical analysis. It should be noted that PFOS concentration was slightly higher in the membrane permeates compared to the effluent of green sorption media pretreatment media, as disclosed in TABLE 5. The slight increase in PFOS concentration could be attributed to the filtration experimental setup that operated in a total recirculation mode. However, most of the differences were very close to the MDL for PFOS (1 ng·L^−1), which was already undetected in the green sorption media effluent

[2] = cited from earlier work
[3] = Control: nanofiltration without green sorption media pretreatment
Description: (§2) The water samples were collected from the same site of the C-23 canal during both the dry and wet seasons. However, only wet season water samples were used in the experiment. The water samples were analyzed for both long-chain (PFOA and PFOS) and short-chain (Perfluorobutanoic acid [PFBA] and Perfluorobutanesulfonic acid [PFBS]) PFAS following the modified EPA 537.1 method (Shoemaker & Tettenhorst, 2020). Through this method, an aliquot of a 250 mL water sample containing analytes and internal standards is extracted via solid phase extraction. The extracted analytes and internal standards are then eluted with methanol and ammonium hydroxide in methanol solvent. Then the eluted samples are dried with nitrogen and reconstituted to 1 mL volume with a buffer solution. The samples are then injected into a C18 liquid chromatography column, and the PFAS compounds are separated by a gradient of pure methanol and 20 mM ammonium acetate. Finally, the eluted compounds are detected, and their concentrations are measured via tandem mass spectrometry. The method detection limits (MDLs) for PFBA, PFBS, PFOA, and PFOS were 0.5 ng·L^−1, 2 ng·L^−1, 0.5 ng·L^−1, and 1 ng·L^−1, respectively. The concentration of calcium ion (Ca^2+) was analyzed at Eurofins Flowers's Chemical Laboratories (Altamonte Springs, Florida) following EPA method 6010D using inductively coupled plasma optical emission spectroscopy (MDL=0.096 mg·L^−1). Total organic carbon (TOC) and dissolved organic carbon (DOC) were measured using a TOC analyzer following EPA method 415.3.
as §1
A bench-scale crossflow filtration setup was used in these experimental methods. The experimental setup consisted of a feed tank, a centrifugal pump, three CF042 membrane cells connected to pressure gauges, check valves, and flowmeters. A recirculating chiller was used for regulating the temperature at 20° C. […]

[4] = Fixed-bed column pretreatment of spiked C-23 canal water with CPS; details: for Removal via column C3: CPS column 3, 9 h; for Removal via column C1 / Removal via column C2 / average removal percentage by media: CPS; for Removal via column C1 / Removal via column C2: 9 h; for average removal percentage by media: triplicate columns
Description: as §2, §1
(§3) C-23 canal water was stored in a walk-in refrigerator at […] after collection. For the pretreatment experiment, a total of 60 L of water was used as influents to the CPS and ZIPGEM columns. Although the raw water was spiked with 70 ng·L^−1 of PFOA and PFOS each, the short-chain PFAS (PFBA, PFBS) were at their indigenous concentrations. A peristaltic pump was used to deliver the water to the columns at a constant flowrate of 14 ml·min^−1. Three columns (triplicate) with 3 ft length and 4-inch diameter containing 2,600 ml of media were set up for each media, and all samples were analyzed in triplicate (FIG. 4). The fixed-bed column experiments were run for more than 48 h, and effluents were taken at different time intervals to be used as feedwaters for the nanofiltration treatment that followed. […] At least 5 L of column effluent were collected to be used as the nanofiltration feed, and the stated effluent at 9 h for CPS was collected from 0 h until 9 h, whereas effluent at 30 h for ZIPGEM was collected from 9 h until 30 h. The collected effluents from the column study were stored in a refrigerator until they were used for the nanofiltration experiment. FIG. 4 illustrates the experimental setup for the pretreatment CPS and ZIPGEM process.
(§4) The average removal efficiencies of each media pretreatment were calculated based on PFAS concentrations in the influents and effluents of triplicate columns, as disclosed in TABLE 5. […]

[5] = Fixed-bed column pretreatment of spiked C-23 canal water with ZIPGEM; details: for Removal via column C1: ZIPGEM column 1, 30 h; for Removal via column C2: ZIPGEM column 2, 30 h; for Removal via column C3 / average removal percentage by media: ZIPGEM; for Removal via column C3: 30 h; for average removal percentage by media: triplicate columns
Description: as §2, §1, §3, §4

| Compound | O = overall removal by water treatment system ([1]; column 1) | O = overall removal by water treatment system ([1]; column 2) | O = overall removal by water treatment system ([1]; column 3) | pKa [2] | % Removal by Control, O [3] | Removal via column C3 [4] | Removal via column C1 [4] | Removal via column C2 [4] | average removal percentage by media [4] | Removal via column C1 [5] | Removal via column C2 [5] | Removal via column C3 [5] | average removal percentage by media [5] |
| --- | --- | --- | --- | --- | --- | --- | --- | --- | --- | --- | --- | --- | --- |
| O=C(O)C(F)(F)C(F)(F)C(F)(F)F [PFBA, Perfluorobutanoic acid] | 58% | 45% | 53% | 0.40 | 67% | 29% | 21% | 24% | 25 | 5% | 5% | 8% | 6 |
| O=S(=O)(O)C(F)(F)C(F)(F)C(F)(F)C(F)(F)F [PFBS, Perfluorobutanesulfonic acid] | 41% | 38% | 52% | 0.14 | 44% | 25% | 20% | 27% | 24 | 6% | 5% | −1% | 3.3 |
| O=C(O)C(F)(F)C(F)(F)C(F)(F)C(F)(F)C(F)(F)C(F)(F)C(F)(F)F [PFOA, Perfluorooctanoic acid] | 98% | 94% | 97% | −0.20 | 82% | 88% | 96% | 85% | 90 | 19% | 19% | 4% | 14 |
| O=S(=O)(O)C(F)(F)C(F)(F)C(F)(F)C(F)(F)C(F)(F)C(F)(F)C(F)(F)C(F)(F)F [PFOS, Perfluorooctanesulfonic acid] | 100% | 100% | 100% | 0.14 | 84% | 100% | 100% | 100% | 100 | 100% | 100% | 100% | 100 |
